Read-outs that look alike come from different tables or passages of the source.
What was measured:
[1] = system: hiHeps; test: Measurements of hepatic clearance in hiHeps suspension
Method: Briefly, a 1×10^6 cells/ml cell suspension and 2× drug solutions were prepared in incubation medium (William's E medium, 10 mM HEPES [pH 7.4], and 1% GlutaMAX). Reactions were started by adding 500 μl of drug solutions to 500 ul of hiHeps, giving a final substrate concentration of between 1 and 2 μM.
These concentrations were selected to be below the Km for most substrates but to still have sufficient analytical sensitivity. Reactions were performed in an orbital shaker in an incubator at 37° C. Then, 80 μl aliquots were removed at 0, 15, 30, 60, 90, 120, 180 and 240 minutes, and samples were quenched in 240 μl of methanol containing an isotope-labeled reference and frozen at −80° C. The substrates were quantified using the validated traditional LC-MS/MS methods described above. Assays were performed in triplicate.
The slope (−k) of the linear regression from the log [substrate] versus time plot was determined. […] No correction factor was made for any differential in vitro and in vivo binding, and the distribution of the drug between the plasma and blood was assumed to be unity.

[2] = cited from earlier work
[3] = system: CYP2B6
Method: (§1) Vehicle-treated groups were used to determine the basal activity. To measure the induced activity of PHHs, PHHs were cultured and induced under sandwich methods.

[4] = Toxicity assay in hiHeps (TC50); assay type: cell-based, human; conditions: human, hiHeps, 24 hours; values rounded for ease of use
Method: (§2) For the toxicity assay, hiHeps, HepG2 cells and PHHs were cultured in 96-well or 384-well plates. Compounds with 7-8 concentration dilutions were prepared in DMEM with 3% FBS to test HepG2 cells or in HCM to test PHHs and hiHeps. The final DMSO concentration under all conditions was consistent.
(§3) Compounds were tested in bipartite in a dilution series by half-log concentration increments. After the cells were treated with compounds for 24 hours, the supernatant was discarded and modified WEM (William's E medium supplemented with 2% B27 and 1% GlutaMAX) containing fluorescent probes was added to cells. […] After incubation for 30 minutes, the supernatant was discarded and cells were washed twice. Images were acquired using the Operetta High-Content Imaging System (PerkinElmer) with a 10× objective. […] After 1-4 hour chromogenic reaction in the incubator, the absorbance at 450 nm was read using a SpectraMax i3× (Molecular Devices). Image data were analyzed online using the Columbus Image Data Storage and Analysis System (PerkinElmer) with the following steps: (1) identification and counting of nuclei; (2) identification and counting of live cells labeled by CellTrace™ Calcein Red-Orange AM; and (3) identification and counting of live cells labeled by MitoTracker™ Deep Red FM. The viability of each parameter transformed from image data and the CCK-8 assay data were entered into Excel. The cellular viability of each parameter was expressed as the live cell ratio and normalized to the negative control. The TC50 values of these four parameters were calculated separately, and the minimum TC50 value was used as the final TC50.

[5] = system: HBV; test: HBV infection of hiHeps, response to anti-HBV compounds; assay type: cell-based
[6] = system: HepG2 cells; assay type: cell-based; conditions: human
Method: For the toxicity assay, hiHeps, HepG2 cells and PHHs were cultured in 96-well or 384-well plates. Compounds with 7-8 concentration dilutions were prepared in DMEM with 3% FBS to test HepG2 cells or in HCM to test PHHs and hiHeps. The final DMSO concentration under all conditions was consistent. The detailed information of the tested compounds is listed in Table 7 ((Seglen, et. Al., Methods in Cell Biology 13, 29-83 (1976)), Zhong et. Al., Clin Chim Acta. 412, 1905-1911 (2011))).
Compounds were tested in bipartite in a dilution series by half-log concentration increments. […] After 1-4 hour chromogenic reaction in the incubator, the absorbance at 450 nm was read using a SpectraMax i3× (Molecular Devices). Image data were analyzed online using the Columbus Image Data Storage and Analysis System (PerkinElmer) with the following steps: (1) identification and counting of nuclei; (2) identification and counting of live cells labeled by CellTrace™ Calcein Red-Orange AM; and (3) identification and counting of live cells labeled by MitoTracker™ Deep Red FM. […] The cellular viability of each parameter was expressed as the live cell ratio and normalized to the negative control. The TC50 values of these four parameters were calculated separately, and the minimum TC50 value was used as the final TC50.

[7] = system: hiHeps
[8] = system: CYP1A2
Method: as §1

[9] = system: hiHeps; test: Toxicity assay in hiHeps (TC50); assay type: cell-based, human
Method: as §2, §3

[10] = hiHeps suspension, substrate 1 μM, parent disappearance
[11] = scaled from hiHeps CLint, well stirred model, human

Compound: O=C(O)Cc1ccccc1Nc1c(Cl)cccc1Cl [Diclofenac]
- In vitro Clint hiHeps by [1, 10]: 4.5 μL/min/10^6
- Scaled in vivo CLh by hiHeps [1, 11]: 7.4 ml/mim/kg
- Observed CLh in vivo ([2]; in vivo): 7.6

Compound: Cc1ncc2n1-c1ccc(Cl)cc1C(c1ccccc1F)=NC2 [Midazolam]
- In vitro Clint hiHeps by ([1]; human, pH 7.4): 2.8 μL/min/10^6
- Scaled in vivo CLh by hiHeps ([1]; human, pH 7.4): 5.3 ml/mim/kg
- Observed CLh in vivo ([2]; observed in vivo, previous reports): 5.3

Compound: C=CCN1CC[C@]23c4c5ccc(O)c4O[C@H]2C(=O)CC[C@@]3(O)[C@H]1C5 [Naloxone]
- In vitro Clint hiHeps by [1, 10]: 14.2 μL/min/10^6
- Scaled in vivo CLh by hiHeps [1, 11]: 13 ml/mim/kg

Compound: CCOc1ccc(NC(C)=O)cc1 [Phenacetin]
- In vitro Clint hiHeps by [1, 10]: 18.3 μL/min/10^6
- Scaled in vivo CLh by hiHeps [1, 11]: 14.1 ml/mim/kg

Compound: CCC1(c2ccccc2)C(=O)NC(=O)NC1=O [Phenobarbital]
- induced activity of CYP2B6 [3]: could be induced

Compound: CN(C)CCCN1c2ccccc2Sc2ccc(Cl)cc21 [chlorpromazine]
- CC50 at 24 h [4]: ~25 µM

Compound: C=C1[C@H](CO)[C@@H](O)C[C@@H]1n1cnc2c(=O)[nH]c(N)nc21 [entecavir]
- inhibition of HBV-DNA ([5]; HBV-infected hiHeps, LAM 1 μM, ETV 0.5 μM, especially during prolonged treatment): greatly inhibited

Compound: CC(C)C(=O)Nc1ccc([N+](=O)[O-])c(C(F)(F)F)c1 [flutamide]
- cell viability [6]: 100%
- toxicity after induction with rifampin [7]: increased after induction with rifampin

Compound: CC(=O)N1CCN(c2ccc(OCC3COC(Cn4ccnc4)(c4ccc(Cl)cc4Cl)O3)cc2)CC1 (centres unmarked) [ketoconazole]
- rescue from rifampin-increased toxicity of AFB1 and flutamide [7]: rescued

Compound: Cc1c(OCC(F)(F)F)ccnc1C[S+]([O-])c1nc2ccccc2[nH]1 (centres unmarked) [lansoprazole]
- induced activity of CYP1A2 [8]: could be induced

Compound: CO[C@H]1/C=C/O[C@@]2(C)Oc3c(C)c(O)c4c(O)c(c(/C=N/N5CCN(C)CC5)c(O)c4c3C2=O)NC(=O)/C(C)=C\C=C\[C@H](C)[C@H](O)[C@@H](C)[C@@H](O)[C@@H](C)[C@H](OC(C)=O)[C@@H]1C [rifampin]
- CC50 at 24 h [4]: 100 µM

Compound: Cc1c(C)c2c(c(C)c1O)CCC(C)(COc1ccc(CC3SC(=O)NC3=O)cc1)O2 (centres unmarked) [troglitazone]
- chronic toxicity (cell death) [9]: caused extensive cell death

Compound: O=c1cc(-c2ccccc2)oc2ccc3ccccc3c12 [β-naphthoflavone]
- induced activity of CYP1A2 [8]: could be induced

Compound: aflatoxin B1
- toxicity after induction with rifampin [7]: increased after induction with rifampin

Compound: interferon-alpha
- effect on all major HBV markers ([5]; HBV-infected hiHeps, 1000 U/mL after infection): inhibitory effect
- IFN-stimulated genes expression ([5]; hiHeps, 1000 U/mL): upregulation
